Measurements reported in patent US8530465B2, “1, 2-disubstituted amido-anthraquinone derivatives, preparation method and application thereof” (National Defense Medical Center, priority 2010, dated 2013).

Experiments:
[1] = system: hTERT; test: Secreted alkaline phosphatase (SEAP) assay, PhTERT-SEAP (H1299); assay type: cell-based; conditions: Homo sapiens, 24 hours; for activity at 1 µM: NCI-H1299, Conc. 1 μM, read-out: Relative SEAP activity (%); for activity at 10 µM: NCI-H1299, Conc. 10 μM; for activity at 10 µM / activity at 100 µM: read-out: Relative SEAP activity (%) (converted); for activity at 100 µM: NCI-H1299, Conc. 100 μM
Protocol: H1299 were grown in RPMI 1640 media supplemented with 10% fetal bovine serum, 100 units/mL penicillin and […] streptomycin in a humidified atmosphere with 5% CO2 at 37° C. Culture media were changed every three days. To establish stable cell lines that the expression of hTERT could be monitored by a reporter system, a about 3.3 kbp DNA fragment ranging from −3338 to +1 bp of the hTERT gene (hTERT promoter, PhTERT) was subcloned upstream to a secreted alkaline phosphatase gene (SEAP) and transfected into H1299 by electroporation. The stable clones were selected using G418. The stable clones derived from H1299 were cultured using conditions that are similar to their parental cells.
Secreted alkaline phosphatase was used as the reporter system to monitor the transcriptional activity of hTERT. Here, about 10^4 cells each were grown in 96-well plates and incubated at 37° C. for 24 hours and changed with fresh media. Varying amounts of drugs were added and cells were incubated for another 24 hours. Culture media were collected and heated at 65° C. for 10 min to inactivate heat-labile phosphatases. An equal amount of SEAP buffer (2 M diethanolamine, 1 mM MgCl2, and 20 mM L-homoarginine) was added to the media and p-nitrophenyl phosphate was added to a final concentration of 12 mM. Absorptions at 405 nm were taken, and the rate of absorption increase is determined (the increasing rate of absorbance at 405 nm was used to represent the activity of SEAP).

[2] = MTT assay, PhTERT-SEAP (H1299); assay type: cell-based, human; conditions: human, H1299 cells carrying the PhTERT-SEAP reporter, PhTERT-SEAP (H1299); for viability at 1 μM: Conc. 1 μM, read-out: Relative MTT viability (%); for viability at 10 μM: Conc. 10 μM; for viability at 10 μM / viability at 100 μM: read-out: Relative MTT viability (%) (converted); for viability at 100 μM: Conc. 100 μM
Protocol: Further, cells were subjected to MTT assay to compare the relative toxicity or effect of each compound on cell proliferation and activity.
The above-described cells are cultured in a 96-well plate, to which was added with 25 μl MTT solution, and cultured in a 37° C. carbon dioxide incubator for 4 hours. Then, 100 μl Lysis buffer is added and incubated in a 37° C. carbon dioxide incubator overnight. An ELISA reader (Bio-Rad Model 450) is used to read optical density (O.D.) at 550 nm.

SMILES	activity at 1 µM [1] [%]	activity at 10 µM [1] [%]	activity at 100 µM [1] [%]	viability at 1 μM [2] [%]	viability at 10 μM [2] [%]	melting point [°C]	viability at 100 μM [2] [%]
O=C(CCl)Nc1ccc2c(c1NC(=O)c1cccc(Cl)c1)C(=O)c1ccccc1C2=O [CC-17, 1-(3-chlorobenzamido)-2-(chloroacetamido)-anthraquinone]	80.9 ± 3.9	6.65	3.51	89.7 ± 2.74	5.08	188 to 189	
O=C(CCCl)Nc1ccc2c(c1NC(=O)CCCl)C(=O)c1ccccc1C2=O [CC-02, 1,2-bis-(3-chloropropionamido)-anthraquinone]	96.3 ± 3.31	94.7	16	101 ± 4.37	83.8	179 to 180	5.38
O=C(CCl)Nc1ccc2c(c1NC(=O)c1ccccc1Cl)C(=O)c1ccccc1C2=O [CC-16, 1-(2-chlorobenzamido)-2-(chloroacetamido)-anthraquinone]	81.6 ± 48.2	5.35	1.23	102 ± 4.26	6.63	193 to 194	
Cc1ccccc1C(=O)Nc1c(NC(=O)CCl)ccc2c1C(=O)c1ccccc1C2=O [CC-10, 1-(2-methylbenzamido)-2-(chloroacetamido)-anthraquinone]	98.6 ± 7.92	-3.13	-5.69	73.8 ± 7.94		179 to 180	
O=C(CCl)Nc1ccc2c(c1NC(=O)CSc1ccccc1)C(=O)c1ccccc1C2=O [CC-32, 1-[2-(phenylsulfanyl)acetylamino]-2-(chloroacetamido)-anthraquinone]	80 ± 4.39	3.89	-0.05	88.5 ± 2.25	5.73	161 to 162	
O=C(CCl)Nc1ccc2c(c1NC(=O)COc1ccccc1)C(=O)c1ccccc1C2=O [CC-31, 1-[2-(phenoxy)acetylamino]-2-(chloroacetamido)-anthraquinone]	83 ± 1.98	72.9	4.7	101 ± 4.91	66.5	217 to 218	4.86
O=C(CCl)Nc1ccc2c(c1NC(=O)C1CCCCC1)C(=O)c1ccccc1C2=O [CC-26, 1-[(cyclohexanecarbonyl)amino]-2-(chloroacetamido)-anthraquinone]	82.5 ± 4.53	3.07	1.76	82.3 ± 4.4	1.54	216 to 217	
Cc1ccc(C(=O)Nc2c(NC(=O)CN3CCN(c4ccccc4)CC3)ccc3c2C(=O)c2ccccc2C3=O)cc1 [CC-45, 1-(4-methylbenzamido)-2-[2-(4-phenylpiperazino)acetylamino]-anthraquinone]	93.2 ± 4.68	88.2	15.9	80.8 ± 6.98	77	270 to 271	23.2
O=C(CN1CCN(c2ccccc2F)CC1)Nc1ccc2c(c1NC(=O)c1ccccc1)C(=O)c1ccccc1C2=O [CC-34, 1-(benzamido)-2-[2-[4-(2-fluorophenyl)piperazino]acetylamino]-anthraquinone]	98.7 ± 2.55	79.6 ± 1.35	15.6 ± 1.54	98.6 ± 2.29	92.3 ± 2.41	228 to 229	27.8 ± 4.82
O=C(CCCCl)Nc1ccc2c(c1NC(=O)CCCCl)C(=O)c1ccccc1C2=O [CC-03, 1,2-bis-(4-chlorobutyramido)-anthraquinone]	114 ± 6.14	92.9	15.2	103 ± 7.01	79.9	154 to 155	19
Cc1cc(C(=O)Nc2c(NC(=O)CCl)ccc3c2C(=O)c2ccccc2C3=O)c(C)o1 [CC-30, 1-[(2,5-dimethyl-3-furoyl)amino]-2-(chloroacetamido)-anthraquinone]	81.2 ± 1.85	2.37	0.83	96 ± 2.27	2.93	207 to 208	
Cc1ccc(C(=O)Nc2c(NC(=O)CN(C)CC3OCCO3)ccc3c2C(=O)c2ccccc2C3=O)cc1 [CC-36, 1-(4-methylbenzamido)-2-[2-[(1,3-dioxolan-2-ylmethyl)(methyl)amino]acetylamino]-anthraquinone]	101 ± 3.01	76.5	10.2	104 ± 2.12	88.6	156 to 157	3.78
O=C(CCl)Nc1ccc2c(c1NC(=O)c1ccccc1C(F)(F)F)C(=O)c1ccccc1C2=O [CC-19, 1-[2-(trifluoromethyl)benzamido]-2-(chloroacetamido)-anthraquinone]	93.5 ± 6.11	4.89	2.4	93.2 ± 2.95	3.42	248 to 250	
O=C(CCl)Nc1ccc2c(c1NC(=O)c1ccc(C(F)(F)F)cc1)C(=O)c1ccccc1C2=O [CC-21, 1-[4-(trifluoromethyl)benzamido]-2-(chloroacetamido)-anthraquinone]	85.9 ± 8	8.61 ± 0.0611	6.49	86.3 ± 2.6	6.58	203 to 204	
Nc1c(NC(=O)CCl)ccc2c1C(=O)c1ccccc1C2=O [CC-05, 1-(amino)-2-(chloroacetamido)-anthraquinone]	42 ± 4.16	6.73 ± 0.83	3.23 ± 1.22	64.3 ± 8.97		193 to 194	
Cc1ccc(C(=O)Nc2c(NC(=O)CN3CCN(c4ncccn4)CC3)ccc3c2C(=O)c2ccccc2C3=O)cc1 [CC-50, 1-(4-methylbenzamido)-2-[2-[4-(2-pyrimidinyl)piperazino]acetylamino]-anthraquinone]	87.1 ± 7.97	79.5	20	102 ± 5.76	91.5	267 to 268	59
O=C(CCl)Nc1ccc2c(c1NC(=O)CCCCl)C(=O)c1ccccc1C2=O [CC-08, 1-[(4-chlorobutanyl)amido]-2-(chloroacetamido)-anthraquinone]	108 ± 9.03	97.1	30.9	100 ± 4.4	117	163 to 164	62
Cc1ccc(C(=O)Nc2c(NC(=O)CN3CCN(c4ccccn4)CC3)ccc3c2C(=O)c2ccccc2C3=O)cc1 [CC-49, 1-(4-methylbenzamido)-2-[2-[4-(2-pyridyl)piperazino]acetylamino]-anthraquinone]	97.1 ± 7.43	64.3	9.96	105 ± 3.65	100	258 to 259	6.46
Cc1ccc(C(=O)Nc2c(NC(=O)CN3CCN(c4ccccc4C#N)CC3)ccc3c2C(=O)c2ccccc2C3=O)cc1 [CC-47, 1-(4-methylbenzamido)-2-[2-[4-(2-cyanophenyl)piperazino]acetylamino]-anthraquinone]	81 ± 9.56	74.2	20.8	72 ± 11.1	60.1	238 to 239	48.2
O=C(CCl)Nc1ccc2c(c1NC(=O)c1ccc(Cl)cc1)C(=O)c1ccccc1C2=O [CC-18, 1-(4-chlorobenzamido)-2-(chloroacetamido)-anthraquinone]	98.7 ± 5.6	6.26	4.95	92.4 ± 7.16	5.17	224 to 225	4.25
